According to patent US10111875B2, “Pyrrolopyrimidine compounds and uses thereof” (HUTCHISON MEDIPHARMA LIMITED, priority 2010, dated 2018):

Target: Recombinant human JAK1 catalytic domain (Homo sapiens (Human), UniProt P23458)
Test: JAK1 kinase assay (Z'-LYTE Tyr 6 Peptide)
Format: biochemical
Conditions: JAK1 kinase assay, 0.3 uM concentration; read-out: inhibition percentage (IR %)
Protocol: JAK1/2/3 kinase assay are performed in vitro using Kit-Tyr 6 Peptide (Invitrogen, Cat. No. PV4122). TYK2 kinase assay are performed in vitro using Z′-LYTE™ Kinase Assay Kit-Tyr 3 Peptide (Invitrogen, Cat. No. PV3192). […] All compounds are initially tested at 8 different concentrations (1 μM down to 0.0003 μM) using a 1:3 serial dilution scheme.

Recombinant human JAK1 catalytic domain, sequence (P23458 875-1153): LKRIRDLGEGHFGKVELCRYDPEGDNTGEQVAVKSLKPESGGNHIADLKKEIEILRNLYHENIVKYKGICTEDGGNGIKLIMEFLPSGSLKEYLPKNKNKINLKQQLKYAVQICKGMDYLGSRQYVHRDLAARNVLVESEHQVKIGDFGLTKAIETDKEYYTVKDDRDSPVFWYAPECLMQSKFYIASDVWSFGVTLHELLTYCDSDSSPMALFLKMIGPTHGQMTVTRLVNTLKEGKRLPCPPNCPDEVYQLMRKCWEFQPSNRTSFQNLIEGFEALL

Row | SMILES | inhibition at 0.3 µM [%]
1 | CN(c1ccc(C(=O)NC2c3ccccc3C[C@H]2O)cc1F)[C@@H]1CCN(c2ncnc3[nH]ccc23)C1 (single isomer, unassigned) [Compound 204] | 50 to 100
2 | CN(c1ccc(C#N)c(O)n1)[C@@H]1CCN(c2ncnc3[nH]ccc23)C1 [Compound 260] | 50 to 100
3 | CN(c1ccc(C#N)cn1)[C@H]1CCN(c2ncnc3[nH]ccc23)C1 [Compound 102] | 50 to 100
4 | CN(c1ccc([N+](=O)[O-])c(N)n1)[C@@H]1CCN(c2ncnc3[nH]ccc23)C1 [Compound 78] | 20 to 50
5 | CN(C(=O)CC1CC1)[C@@H]1CCN(c2ncnc3[nH]ccc23)C1 [Compound 19] | 20 to 50
6 | CN(c1ccc(NS(=O)(=O)Cc2ccccc2F)cn1)[C@@H]1CCN(c2ncnc3[nH]ccc23)C1 [Compound 219] | 50 to 100
7 | CN(c1ccn2nccc2n1)[C@@H]1CCN(c2ncnc3[nH]ccc23)C1 [Compound 88] | 20 to 50
8 | CN(c1ccc(S(=O)(=O)NC(C)(C)C)cn1)[C@@H]1CCN(c2ncnc3[nH]ccc23)C1 [Compound 238] | 50 to 100
9 | CN(c1ccc(C#N)cn1)[C@@H]1CCN(c2ccnc3[nH]ccc23)C1 [Compound 92] | 50 to 100
10 | Cc1ccc(N(C)[C@@H]2CCN(c3ncnc4[nH]ccc34)C2)nc1 [Compound 101] | 50 to 100
11 | CN(c1ccncn1)[C@@H]1CCN(c2ncnc3[nH]ccc23)C1 [Compound 154, (R)—N-(1-(7H-pyrrolo[2,3-d]pyrimidin-4-yl)pyrrolidin-3-yl)-N-methylpyrimidin-4-amine] | 50 to 100
12 | CCCN(c1ccc(C#N)cn1)[C@@H]1CCN(c2ncnc3[nH]ccc23)C1 [Compound 98] | 50 to 100
13 | N#Cc1ccc(N(C2CC2)[C@@H]2CCN(c3ncnc4[nH]ccc34)C2)nc1 [Compound 41] | 50 to 100
14 | C[C@H](NC(=O)c1ccc(N(C)[C@@H]2CCN(c3ncnc4[nH]ccc34)C2)nc1)c1ccccc1 [Compound 188] | 20 to 50
15 | CN(c1ncnc2ccccc12)[C@@H]1CCN(c2ncnc3[nH]ccc23)C1 [Compound 80] | 50 to 100
16 | CN(c1ccc(NC(=O)c2cccc(F)c2)cn1)[C@@H]1CCN(c2ncnc3[nH]ccc23)C1 [Compound 226] | 50 to 100
17 | N#Cc1cnc(N[C@@H]2CCN(c3ncnc4[nH]ccc34)C2)c([N+](=O)[O-])c1 [Compound 97] | 50 to 100
18 | C#CCN(c1ccc(C#N)cc1)[C@@H]1CCN(c2ncnc3[nH]ccc23)C1 [Compound 131] | 50 to 100
19 | CN(C(=O)N1CCCC1C(F)(F)F)[C@@H]1CCN(c2ncnc3[nH]ccc23)C1 (some centres unmarked) [Compound 59] | 50 to 100
20 | CN(c1c(F)cc(C(=O)N[C@@H](CO)c2ccccc2)cc1F)[C@@H]1CCN(c2ncnc3[nH]ccc23)C1 [Compound 208] | 50 to 100
21 | CN([C@@H]1CCN(c2ncnc3[nH]ccc23)C1)S(=O)(=O)C1CCCCC1 [Compound 28] | 50 to 100
22 | CCN(c1c(F)cc(C#N)cc1F)[C@@H]1CCN(c2ncnc3[nH]ccc23)C1 [Compound 132] | 50 to 100
23 | CN(c1ccc(S(=O)(=O)NC2COC2)cn1)[C@@H]1CCN(c2ncnc3[nH]ccc23)C1 [Compound 242] | 50 to 100
24 | CN(c1ccccn1)[C@@H]1CCN(c2ncnc3[nH]ccc23)C1 [Compound 156] | 50 to 100
25 | CN(C)S(=O)(=O)N(C)[C@@H]1CCN(c2ncnc3[nH]ccc23)C1 [Compound 14] | 50 to 100
26 | CN(c1ccc(NS(=O)(=O)c2cc(F)ccc2F)cn1)[C@@H]1CCN(c2ncnc3[nH]ccc23)C1 [Compound 213] | 20 to 50
27 | CN(c1cnc(NCCO)cn1)[C@@H]1CCN(c2ncnc3[nH]ccc23)C1 [Compound 135] | 20 to 50
28 | CCS(=O)(=O)N(C)[C@@H]1CCN(c2ncnc3[nH]ccc23)C1 [Compound 48] | 50 to 100
29 | CN(c1nc(Cl)c(C#N)cc1F)[C@@H]1CCN(c2ncnc3[nH]ccc23)C1 [Compound 87] | 50 to 100
